Test results from patent US7598244B2, “[1,2,4]triazolo[1,5,a]pyrimidin-2-ylurea derivative and use thereof” (Nippon Kayaku Kabushiki Kaisha, priority 2003, dated 2009).

System: BALB/c mice
Test: Effect on mouse plaque forming cells (PFCs) to sheep erythrocytes
Format: in vivo
Conditions: Oral, 50 mg/kg/single administration, twice a day for 4 days
Method: Effect on Mouse Plaque Forming Cells (PFCs)
Sheep erythrocytes (Nippon Seibutsu Zairyo Center, Co., Ltd.) were intraperitoneally administered to each of BALB/c mice (Charles River Japan, Inc.; female; 8-week-old) at an amount of 1.0×10^8 cells. Thereafter, a test compound was administered thereto twice a day for 4 days after the first administration (only once on the first day) (n=4). On the day subsequent to completion of the administration of the test compound, splenic cells were prepared from the mouse, and the number of PFCs to the sheep erythrocytes was counted by the method of Cunninham (Cunninham, A. J. et al., Immunology, vol. 14, p. 599 (1968)). The number of PFCs per number of splenic cells of 1.0×10^6 was obtained. The reduction rate of the number of PFC in the mouse to which the test compound had been administered, to the number of PFCs in a control mouse to which the test compound had not been administered but only a solvent had been administered, was calculated using the following formula (4).
[formula] • Eexp: The number of PFCs per 1×10^6 splenic cells of mouse to which test compound was administered • Cexp: The number of PFCs per 1×10^6 splenic cells of mouse to which solvent was administered

CC(C)NC(=O)Nc1nc2nccc(-c3cccs3)n2n1 [Example 029, 1-isopropyl-3-(7-thiophen-2-yl[1,2,4]triazolo[1,5-a]pyrimidin-2-yl)urea]
Reduction rate (%) of number of PFCs: 49.3%
